The values below come from patent publication US20220315572A1, “SUBSTITUTED CYANOPYRROLIDINES WITH ACTIVITY AS USP30 INHIBITORS” (MISSION THERAPEUTICS LIMITED, priority 2019, published 2022).

In test [1] the test system is USP2, USP10, USP16, USP21, USP22, USP25, USP28, USP35, USP46. Put plainly: DUB biochemical IC50 assays, nine DUBs. Conditions: range over the nine DUBs; for IC50: Ref. Ex. C excl. USP22, Ref. Ex. D excl. USP2, 46.
A further test concerns the target T1, USP30 (Homo sapiens, UniProt Q70CQ3).
T1 construct: purchased Boston Biochem E582
T1 sequence (Q70CQ3 57-517 limits assumed): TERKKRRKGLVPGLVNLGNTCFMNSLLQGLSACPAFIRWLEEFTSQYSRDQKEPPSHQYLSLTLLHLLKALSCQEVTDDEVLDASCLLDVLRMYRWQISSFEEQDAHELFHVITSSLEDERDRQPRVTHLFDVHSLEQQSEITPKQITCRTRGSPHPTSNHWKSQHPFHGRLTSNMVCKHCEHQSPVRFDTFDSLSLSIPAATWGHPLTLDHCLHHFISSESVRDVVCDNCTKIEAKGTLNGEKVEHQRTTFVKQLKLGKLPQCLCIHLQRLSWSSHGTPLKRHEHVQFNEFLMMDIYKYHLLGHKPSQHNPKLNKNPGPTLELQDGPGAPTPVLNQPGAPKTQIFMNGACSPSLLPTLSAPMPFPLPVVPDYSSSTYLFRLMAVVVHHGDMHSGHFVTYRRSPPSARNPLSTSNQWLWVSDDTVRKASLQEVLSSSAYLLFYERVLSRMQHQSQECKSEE
Put plainly: USP30 biochemical IC50 assay (fluorescence polarisation). The settings on record: USP30 biochemical IC50 assay, exemplary compounds; read-out: IC50. As to the method:
Dilution plates were prepared at 21 times the final concentration (2100 μM for a final concentration of 100 μM) in 50% DMSO in a 96-well polypropylene V-bottom plate (Greiner #651201). A typical 8-point dilution series would be 100, 30, 10, 3, 1, 0.3, 0.1, 0.03 μM final. Reactions were performed in duplicate in black 384 well plates (small volume, Greiner 784076) in a final reaction volume of 21 μl. Either […] of 50% DMSO or diluted compound was added to the plate. USP30 (Boston Biochem #E582) was diluted in reaction buffer (40 mM Tris, pH 7.5, 0.005% Tween 20, 0.5 mg/ml BSA, 5 mM beta-mercaptoethanol) to achieve a final assay concentration of 4 nM, and 10 μl of diluted USP30 was added to the compound. Enzyme and compound were incubated for 30 min at room temp. Reactions were initiated by the addition of 50 nM of TAMRA labelled peptide linked to ubiquitin via an iso-peptide bond as fluorescence polarisation substrate. Reactions were read immediately after addition of substrate and following a 2-hour incubation at room temperature. Readings were performed on a Pherastar Plus (BMG Labtech). λ Excitation 540 nm; λ Emission 590 nm.
On the technique in general: Fluorescence polarisation rises when a labelled molecule tumbles more slowly, as on binding a larger partner.

In the next test the target is T2, Endogenous USP30 (Homo sapiens, UniProt Q70CQ3).
T2 construct: USP30 endogenous cellular target engagement western blot (WB) assay; endogenous in cells; host or cells: HeLa stably overexpressing YFP-Parkin
T2 sequence (Q70CQ3 1-517): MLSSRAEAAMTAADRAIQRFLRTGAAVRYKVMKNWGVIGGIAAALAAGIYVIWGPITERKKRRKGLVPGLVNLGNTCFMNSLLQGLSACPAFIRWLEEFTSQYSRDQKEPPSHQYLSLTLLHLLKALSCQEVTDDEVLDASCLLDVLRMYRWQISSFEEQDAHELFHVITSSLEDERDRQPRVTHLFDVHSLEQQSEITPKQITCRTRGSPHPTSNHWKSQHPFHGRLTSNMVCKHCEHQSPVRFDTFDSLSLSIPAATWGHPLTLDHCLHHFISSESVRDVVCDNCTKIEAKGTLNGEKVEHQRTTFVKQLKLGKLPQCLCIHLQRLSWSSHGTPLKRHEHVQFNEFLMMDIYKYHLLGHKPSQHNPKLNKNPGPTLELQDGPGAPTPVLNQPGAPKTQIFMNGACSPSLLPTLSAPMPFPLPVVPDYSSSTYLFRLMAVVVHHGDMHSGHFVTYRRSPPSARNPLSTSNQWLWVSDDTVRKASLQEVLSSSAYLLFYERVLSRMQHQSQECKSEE
In words: USP30 endogenous cellular target engagement western blot assay (Cell TE WB). It is filed as cell-based. Conditions: Hela cells stably overexpressing YFP-Parkin, 1 hour. On the procedure:
Hela cells stably overexpressing YFP-Parkin were seeded into 6 well dishes. Once adhered, cells were treated with appropriate concentrations of test compounds or vehicle control for 1 hour at 37° C., 5% CO2. Whole cell lysates were prepared by scraping the cells into cold PBS, centrifuging and lysing in lysis buffer (50 mM Tris-base, pH 7.5, 50 mM NaCl, 1% NP-40/Igepal CA-630, 2 mM MgCl2, 10% Glycerol, 5 mM beta-mercaptoethanol, cOmplete mini tablets EDTA free (Roche), PhosStop tablets (Roche)) for 10 mins. The equivalent of 20 μg of protein from the cleared cell lysate was incubated with a final conc of 2.5 μM HA-Ahx-Ahx-Ub-VME probe at room temperature. The reaction was stopped by addition of 5×SDS sample loading buffer and proteins separated by SDS PAGE and western blotting. USP30 was detected using an anti-USP30 Sheep S746D antibody (MRC PPU Reagents and Services) and a rabbit anti sheep secondary IgG (H+L) horseradish peroxidase conjugated (Thermo #31480) and visualised using ECL reagent (GE #RPN2109) on a GE LAS4000 imager. Target engagement was measured by quantitation of the bands corresponding to USP30 and USP30 bound to the Ub-VME probe and expression of this proportion compared to vehicle treated control.
Cell TE WB: USP30 endogenous cellular target engagement western blot (WB) assay. Assays the activity of compounds against USP30 in cells using an irreversible activity probe to monitor USP30 activity.

In a further test the test system is Cathepsins B, K, L, S, V. Put plainly: Cathepsin IC50, range over B, K, L, S, V. The settings on record: for Selectivity preference for USP30 v cathepsins: range over cathepsins B, K, L, S; for IC50: range over the five cathepsins. The format is biochemical.
Another test concerns the target T3, UCHL1 (Homo sapiens, UniProt P09936).
T3 sequence (P09936 1-223): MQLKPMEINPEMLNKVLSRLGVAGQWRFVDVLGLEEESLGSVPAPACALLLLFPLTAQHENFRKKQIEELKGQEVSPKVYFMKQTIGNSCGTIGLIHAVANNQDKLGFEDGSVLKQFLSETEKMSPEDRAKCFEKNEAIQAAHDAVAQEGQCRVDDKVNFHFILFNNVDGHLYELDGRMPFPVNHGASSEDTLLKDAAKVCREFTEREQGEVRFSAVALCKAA
Put plainly: DUB biochemical IC50 assay, UCHL1.

The next test addresses Cathepsin V (Homo sapiens, UniProt O60911). In words: Cathepsin IC50, cathepsin V. It is filed as biochemical.
Another test has as its target Cathepsin L (Homo sapiens, UniProt P07711). In words: Cathepsin IC50, cathepsin L. It is filed as biochemical.
The next test has as its target Cathepsin B (Homo sapiens, UniProt P07858). In words: Cathepsin IC50, cathepsin B. It is filed as biochemical.
The next test deals with T4, Cathepsin K (Homo sapiens, UniProt P43235).
T4 sequence (P43235 115-329): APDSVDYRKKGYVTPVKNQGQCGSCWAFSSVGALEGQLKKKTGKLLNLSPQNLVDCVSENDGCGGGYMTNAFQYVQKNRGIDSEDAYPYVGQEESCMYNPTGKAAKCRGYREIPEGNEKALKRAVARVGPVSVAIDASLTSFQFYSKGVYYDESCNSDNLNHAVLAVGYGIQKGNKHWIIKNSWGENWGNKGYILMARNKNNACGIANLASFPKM
Put plainly: Cathepsin IC50, cathepsin K. It is filed as biochemical.

The next test concerns the target Cathepsin S (Homo sapiens, UniProt P25774). Put plainly: Cathepsin IC50, cathepsin S. It is filed as biochemical.
Test [2] concerns HCT116 human colorectal carcinoma cells. Put plainly: In vitro cytotoxicity (Cell Tox), alamarBlue. It is filed as cell-based. An excerpt: There is also a need for compounds that have a favourable safety profile, which may be measured by a variety of standard in vitro and in vivo methods. A cell toxicity counter-screen may be used to assay the anti-proliferative/cytotoxic effect in a particular cell line (e.g. HCT116) by fluorometric detection of rezasurin (alamarBlue) to resofurin in response to mitochondrial activity.
In Vitro Cytotoxicity (Cell Tox): Measured in HCT116 human colorectal carcinoma cells using alamarBlue as the assay endpoint. Compound cytotoxicity was measured over a period of 96-hour continual compound exposure.
On the technique in general: The colour change of resazurin is a common sign of viable cells or microbes.

Cathepsin L, sequence (P07711 114-333, species assumed): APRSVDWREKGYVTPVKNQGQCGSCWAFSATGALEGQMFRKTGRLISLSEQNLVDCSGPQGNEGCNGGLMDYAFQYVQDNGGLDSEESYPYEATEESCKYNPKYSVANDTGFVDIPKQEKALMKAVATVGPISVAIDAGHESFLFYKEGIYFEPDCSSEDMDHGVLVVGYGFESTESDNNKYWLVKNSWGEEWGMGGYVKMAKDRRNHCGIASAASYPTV
Cathepsin V, sequence (O60911 114-334, species assumed): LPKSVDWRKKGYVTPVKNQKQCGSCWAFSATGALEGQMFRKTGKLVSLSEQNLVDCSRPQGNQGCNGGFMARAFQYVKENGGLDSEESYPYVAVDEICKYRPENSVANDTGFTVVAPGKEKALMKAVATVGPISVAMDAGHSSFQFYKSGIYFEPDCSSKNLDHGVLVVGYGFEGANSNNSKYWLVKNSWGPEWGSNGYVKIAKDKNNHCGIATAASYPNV
Cathepsin S, sequence (P25774 115-331, species assumed): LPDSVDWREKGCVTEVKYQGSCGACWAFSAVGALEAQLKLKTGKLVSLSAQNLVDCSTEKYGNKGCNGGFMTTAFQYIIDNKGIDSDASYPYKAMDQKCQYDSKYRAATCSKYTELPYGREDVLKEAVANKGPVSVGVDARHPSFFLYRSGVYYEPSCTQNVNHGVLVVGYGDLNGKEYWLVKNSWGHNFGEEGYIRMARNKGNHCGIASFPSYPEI

As to `COC[C@@H]1C[C@@H](NC(=O)c2nnc(-c3cc(C#N)ccc3OC)o2)CN1C#N` [Example 4, 5-(5-Cyano-2-methoxyphenyl)-N-((3R,5S)-1-cyano-5-(methoxymethyl)pyrrolidine-3-yl)-1,3,4-oxadiazole-2-carboxamide], the “DUB selectivity preference for USP30 v 9 DUBs” value in test [1] was 365-10300. Besides, the IC50 in test [1] was no less than 10.6 µM; on USP30, 0.029 µM; in the test with Cathepsins B, K, L, S, V, 44.5 to 226 µM; against UCHL1, greater than 300 µM; against Cathepsin V, 223 µM; against Cathepsin L, 54.5 µM. For the same compound, the IC50 against Cathepsin B was 111 µM; against Cathepsin K it was 44.5 µM; at Cathepsin S it was 226 µM. The 50% effective concentration (EC50) at Endogenous USP30 is 0.087 µM; in test [2] (Homo sapiens, HCT-116, 96-hour continual compound exposure, alamarBlue) it was greater than 30 µM. Besides, the “Selectivity preference for USP30 v cathepsins” value with Cathepsins B, K, L, S, V is listed as 1500-7800. Further, the “DUB selectivity preference for USP30 v UCHL1” value at UCHL1 is listed as 10300. For the same compound, the “Cell Tox EC50/USP30 IC50” value in [2] was greater than 1000.

With `COc1ccc(C#N)cc1-c1nnc(C(=O)N[C@@H]2C[C@@H](C)N(C#N)C2)o1` [Example 5, 5-(5-Cyano-2-methoxyphenyl)-N-((3R,5R)-1-cyano-5-methylpyrrolidin-3-yl)-1,3,4-oxadiazole-2-carboxamide], the “DUB selectivity preference for USP30 v 9 DUBs” value in test [1] is 360-8800. Moreover, the IC50 in test [1] is no less than 12.4 µM; on USP30, 0.034 µM; in the test with Cathepsins B, K, L, S, V it was 24.5 to 300 µM; on UCHL1, greater than 300 µM; against Cathepsin V it was 162 µM; against Cathepsin L it was greater than 300 µM. The IC50 against Cathepsin B is greater than 300 µM; against Cathepsin K, 24.5 µM; against Cathepsin S, greater than 300 µM. Further, the 50% effective concentration (EC50) at Endogenous USP30 was determined as 0.072 µM. The “Selectivity preference for USP30 v cathepsins” value with Cathepsins B, K, L, S, V is 720-8800. Further, the “DUB selectivity preference for USP30 v UCHL1” value on UCHL1 is given as 8800.

Usually IC50 stands for the midpoint of a concentration-inhibition curve. One may read the EC50 as the concentration needed to bring the measured effect to its halfway point. A low value points to higher potency in that assay.
